Assays:
J774M cells = test: J774M cell proliferation or viability; assay type: cell-based; conditions: 0.01-5 μM, up to 48 hours
Description: The J774M cell line was cultured with DMEM (Corning) media with 10% fetal bovine serum (Corning) and 1% Pen/Strep (Life Technologies). Cells were incubated in 37° C. and 5% CO2.

[1] = system: Myeloid derived suppressor cells (G-MDSCs, M-MDSCs); test: FACS analysis of G-MDSC and M-MDSC in tumor and blood; assay type: in vivo, Balb/c mice
Description: (§1) Tumor suspension and spleenocyte preparation: Live tumor sections were isolated from tumors, cut into small pieces, and digested with an enzyme cocktail solution from the mouse tumor dissociation kit (Miltenyi Biotec—130-096-730). Tumors were incubated with the enzyme cocktail for 30 minutes at 37° C. with agitation. The enzyme reaction was arrested using PBS, cells were spun at 300 g, 4° C. for 7 minutes, re-suspended in PBS and mashed through a 70 um cell strainer. Cells from these tumors were either used for flow cytometry analysis or further processed and used for functional analyses.
(§2) Cell staining and flow cytometry: Splenocytes, tumor cell suspensions, and peripheral blood cells were washed, blocked with Fc Block (anti-mouse CD16/32 mAb; BD Biosciences) at 4° C. for 15 minutes, and stained with fluorescence conjugated antibodies against surface markers: CD45 (clone 30-F11), CD11b (clone M1/70), Gr1 (clone RB6-8C5), Ly6C (clone AL-21), Ly6G (clone 1A8), F480 (clone BM8), CD8a (clone 53-6.7), CD4 (clone RM4-5) antibodies purchased from BioLegend, eBioscience or BD Biosciences. Cells were then fixed in Fixation/Permeabilization buffer (eBioscience) and stained with antibodies against intracellular proteins, including FoxP3 (NRRF-30) and Granzyme B (clone GB11). The antibodies were purchased from BD Biosciences, Biolegend, and R&D Systems and used in staining. Stained cells and isotype-control-stained cells, were assayed on a LSR4 or Fortessa flow cytometer (BD Biosciences). Data analysis was performed using the FlowJo (FlowJo LLC) and/or ModFit LT 4.1 software.

[2] = system: G-MDSCs or M-MDSCs isolated from RENCA tumors; test: T cell suppression assay, ex vivo, MDSCs isolated from RENCA tumors of treated mice; assay type: cell-based, mouse
Description: T cell isolation & activation: Whole spleens were harvested from naïve mice, mashed and passed through a 70 μm strainer. Cells were then washed, lysed with RBC lysis buffer (Affymetrix 00-4333-57), and cultured in RPMI medium with 10% FBS, Pen (100 units/ml)-Strep ([…]), 1 mM sodium pyruvate, […] non-essential amino-acids, 2 mM L-Glutamine, 55 μM BME, with anti-CD3 (eBioscience 16-0031-85) and anti-CD28 (eBioscience 5012503) for approximately 24 hours. CD8^+ T cells were then isolated using a CD8a^+ T cell isolation kit from Miltenyi Biotec (130-104-075), stained with CFSE (NC9759757), according to the manufacturer's protocol, and co-cultured with MDSCs as described below. MDSC Isolation: MDSCs were isolated from RENCA tumors of each group using Miltenyi Biotec's Myeloid Derived Suppressor Cell Isolation Kit (130-094-538) and co-cultured with isolated CD8^+ T cells in serially diluted concentrations. T cell suppression assay: T cells (1×10^5; isolated with a CD8a^+ T cell isolation kit; Miltenyi Biotec) were cultured in plates with varying numbers of either G-MDSCs or M-MDSCs isolated from RENCA tumors for 16-18 hours. T cells isolated in the listed method were co-cultured with entinostat treated J774M cells for 68-72 hours. Cells were then harvested, stained and analyzed via FACS analysis. Cell staining and flow cytometry: Splenocytes, tumor cell suspensions, and peripheral blood cells were washed, blocked with Fc Block (anti-mouse CD16/32 mAb; BD Biosciences) at 4° C. for 15 minutes, and stained with fluorescence conjugated antibodies against surface markers: CD45 (clone 30-F11), CD11b (clone M1/70), Gr1 (clone RB6-8C5), Ly6C (clone AL-21), Ly6G (clone 1A8), F480 (clone BM8), CD8a (clone 53-6.7), CD4 (clone RM4-5) antibodies purchased from BioLegend, eBioscience or BD Biosciences. Cells were then fixed in Fixation/Permeabilization buffer (eBioscience) and stained with antibodies against intracellular proteins, including FoxP3 (NRRF-30) and Granzyme B (clone GB11). The antibodies were purchased from BD Biosciences, Biolegend, and R&D Systems and used in staining. […]

[3] = system: T regulatory cells (CD4+FoxP3+); test: FACS analysis of T regulatory cells in end-point blood and tumor samples; assay type: in vivo, Balb/c mice; conditions: blood
Description: as §1
as §2, with “Stained cells and isotype-control-stained cells, were assayed on a LSR4 or Fortessa flow cytometer (BD Biosciences). Data analysis was performed using the FlowJo (FlowJo LLC) and/or ModFit LT 4.1 software.” left out

arginase-1 (Arg1) = test: Quantitative real-time PCR of Arginase 1 in J774M cells; assay type: cell-based; conditions: 0.5 μM, 1 μM, 2 μM vs untreated control (p=0.003; 0.0041; 0.0043)
Description: Quantitative real-time PCR: mRNA was extracted from J774M cells that were treated±entinostat using standard Trizol protocols. RNA concentration and purity were determined through measurement of A260/280 ratios with a Synergy Hi Multi-Mode reader. cDNA was prepared using the iScript kit (Bio-Rad) and qPCR was performed using an Applied Biosystems 7900HT fast real time PCR system. Sequence Detection Systems software v2.3 was used to identify the cycle threshold (Ct) values and to generate gene expression curves. Data were normalized to Gapdh expression and fold change was calculated. The primers used for target genes were: Gapdh_foward 5′-[…]-3′, Gapdh_reverse 5′-[…]-3′ (SEQ ID NO:1), Arginase 1_forward 5′-[…]-3′ (SEQ ID NO:2), and Arginase 1_reverse 5′-[…]-3′ (SEQ ID NO:3).

chemokines and cytokines = test: Proteome Profiler Mouse XL Cytokine array (Ary028) of tumor lysates and serum; assay type: in vivo
Description: Proteome Profile: Tumor tissue was homogenized in PBS containing protease inhibitors. Following homogenization, Triton X-100 was added to a final concentration of 1%, frozen at −80° C., thawed, centrifuged as 10,000 g for 5 minutes, quantified and assayed according to the manufacturer's protocol. Blood samples were collected from mice in each cohort, allowed to clot for 2 hours at room temperature, centrifuged at 2000 g for 15 minutes. Serum samples were frozen at −80° C. until time of analysis at which time they were run according to manufacturer's protocol. All samples were processed and run on R&D Systems mouse XL cytokine array kit (Ary028).

[4] = system: MDSC-like cell line J774M; test: T cell suppression assay with entinostat treated J774M cells; assay type: cell-based; conditions: J774M treated 24 hours in vitro, co-culture with pre-activated CD8+ T cells 68-72 hours
Description: The J774M cell line was cultured with DMEM (Corning) media with 10% fetal bovine serum (Corning) and 1% Pen/Strep (Life Technologies). Cells were incubated in 37° C. and 5% CO2. […] T cell isolation & activation: Whole spleens were harvested from naïve mice, mashed and passed through a 70 μm strainer. Cells were then washed, lysed with RBC lysis buffer (Affymetrix 00-4333-57), and cultured in RPMI medium with 10% FBS, Pen (100 units/ml)-Strep ([…]), 1 mM sodium pyruvate, […] non-essential amino-acids, 2 mM L-Glutamine, 55 μM BME, with anti-CD3 (eBioscience 16-0031-85) and anti-CD28 (eBioscience 5012503) for approximately 24 hours. CD8^+ T cells were then isolated using a CD8a^+ T cell isolation kit from Miltenyi Biotec (130-104-075), stained with CFSE (NC9759757), according to the manufacturer's protocol, and co-cultured with MDSCs as described below. T cell suppression assay: T cells (1×10^5; isolated with a CD8a^+ T cell isolation kit; Miltenyi Biotec) were cultured in plates with varying numbers of either G-MDSCs or M-MDSCs isolated from RENCA tumors for 16-18 hours. T cells isolated in the listed method were co-cultured with entinostat treated J774M cells for 68-72 hours. Cells were then harvested, stained and analyzed via FACS analysis.

[5] = system: RENCA-Luc murine renal cell carcinoma; test: In vivo tumor growth (RENCA), orthotopic RENCA-Luc syngeneic model; design: species or system Balb/c mice; conditions: vs control; entinostat 5 mg/kg oral 5 days/week, anti-PD-1 10 mg/kg I.P.; end-point tumor weight
Description: Cell lines: The RENCA-Luc murine renal cell carcinoma cell line, purchased from American Type Culture Collection (National Cancer Institute), was stably transfected with a luciferase reporter in the Pili laboratory. Cells were cultured using RPMI 1640 (Corning) with 10% fetal bovine serum (Corning) and 1% Pen/Strep (Life Technologies). Cells were incubated in an incubator maintained at 37° C. and 5% CO2. 75-80% confluent cells were harvested for orthotopic injection into the kidney of Balb/c mice using 0.25% Trypsin (Corning) and suspended in a 1:1 ratio of MATRIGEL® (Corning) and DPBS (Gibco).
In vivo tumor growth (RENCA): All procedures were performed and approved in strict accordance with the Institutional Animal Care and Use Committee (IACUC) at Roswell Park Cancer Institute, Indiana University School of Medicine, and with the NIH Guide for the Care and Use of Laboratory Animal guidelines.
Female five- to six-week old Balb/c mice (Charles Rivers) were maintained in a temperature controlled room with a 12/12 hour light/dark schedule and food provided ad libitum. 70-80% confluent RENCA-Luc cells were harvested using 0.25% Trypsin (Corning) and suspended in a 1:1 ratio of matrigel (Corning) and HBSS (Gibco), 10 μl containing 1×10^4 cells was injected under the renal capsule. […]

iNOS = test: Fold change of iNOS in J774M cells; assay type: cell-based; conditions: J774M cells treated with entinostat
[6] = system: advanced renal cell carcinoma; conditions: advanced renal cell carcinoma patients, cited from earlier work

Molecule | J774M cell proliferation or viability (J774M cells) | tumor infiltrating G-MDSC population ([1]; TME, vs control) | tumor infiltrating M-MDSC population ([1]; TME, vs control) | circulating G-MDSCs ([1]; blood) | circulating M-MDSCs ([1]; blood) | capacity of MDSCs (G-MDSC or M-MDSC) to inhibit CD8+ T cell proliferation ([2]; MDSC to T cell ratios 1:1, 0.5:1, 0.25:1, co-culture 16-18 hours, mice treated in vivo, p≤0.01) | CD8+ T cell proliferation in co-culture with MDSCs from treated mice ([2]; co-culture 16-18 hours, similar to control stimulated CD8+ T cells alone) [%] | increase in Granzyme B production by CD8+ T cells ([2]; compared to co-culture with MDSCs from untreated tumor-bearing mouse, p<0.01) | FoxP3 protein levels (MFI) in circulating CD4+FoxP3+ cells [3] | arginase-1 (Arg1) expression (arginase-1 (Arg1)) | circulating pro-tumor associated chemokines and cytokines (chemokines and cytokines; serum vs control, adiponectin, angiopoietin-2, chitinase 3-like 1, CCL12, C5, c-reactive protein, IL-6, pentraxins 2/3, periostin, CCL17, M-CSF, GM-CSF, MMP-2, MMP-9, CCL2, osteoprotegerin, VCAM) | MDSC associated trafficking/accumulation and expansion/activation cytokines in the TME (chemokines and cytokines; tumor lysates vs control, CCL2, VCAM-1/CD106, Angiopoietin-2, G-CSF, GM-CSF, IL-1β, IL-10) | anti-tumor chemokines and cytokines in the TME (chemokines and cytokines; tumor lysates vs control, CXCL10/IP-10, E-selectin, IL-1ra, IL-4, IL-12p40) | upregulation of anti-tumor cytokines/chemokines (chemokines and cytokines; vs control cohort, CXCL9, CXCL10, IL-4, IL-13, E-selectin, IL-12p40) | CD8+ T cell proliferation in co-culture with treated J774M cells [4] | tumor growth inhibition [5] [%] | iNOS fold change (iNOS) | treatment related adverse events [6] | increase in overall survival ([6]; compared to standard of care, everolimus) [%]
Nc1ccccc1NC(=O)c1ccc(CNC(=O)OCc2cccnc2)cc1 [entinostat, Pyridin-3-ylmethyl N-[[4-[(2-aminophenyl)carbamoyl]phenyl]methyl]carbamate] | no significant alteration | slight increase | slight increase | slight decreases | significant increases | significant reduction | ~90 | approximately 40% | significant decrease | significant inhibition | Significant decreases | significant reduction | significant upregulation | note observed | significant increase | 52.6 | inconclusive results |  | 
nivolumab: a PD-1 inhibitor, immune checkpoint inhibitor approved for advanced renal cell carcinoma |  |  |  |  |  |  |  |  |  |  |  |  |  |  |  |  |  | limited treatment related adverse events | 78
